Results: article PMC5564600 (Oncotarget, 2017)

Columns and labels:
Assay in all cases: biochemical
Assay type in all cases: binding
panel of 442 kinases [1] = target: T1, panel of 442 kinases (Homo sapiens, UniProt P22607); conditions: FGFR3; for remaining activity at 1 µM: read-out: % of control at 1 µM
T1 construct: purchased Ambit Biosciences (scanMAXX KINOMEscan)

panel of 442 kinases [2] = target: T2, panel of 442 kinases (Homo sapiens, UniProt P30530); conditions: AXL; for remaining activity at 1 µM: read-out: % of control at 1 µM
T2 construct: purchased Ambit Biosciences (scanMAXX KINOMEscan)
T2 sequence (P30530 26-894): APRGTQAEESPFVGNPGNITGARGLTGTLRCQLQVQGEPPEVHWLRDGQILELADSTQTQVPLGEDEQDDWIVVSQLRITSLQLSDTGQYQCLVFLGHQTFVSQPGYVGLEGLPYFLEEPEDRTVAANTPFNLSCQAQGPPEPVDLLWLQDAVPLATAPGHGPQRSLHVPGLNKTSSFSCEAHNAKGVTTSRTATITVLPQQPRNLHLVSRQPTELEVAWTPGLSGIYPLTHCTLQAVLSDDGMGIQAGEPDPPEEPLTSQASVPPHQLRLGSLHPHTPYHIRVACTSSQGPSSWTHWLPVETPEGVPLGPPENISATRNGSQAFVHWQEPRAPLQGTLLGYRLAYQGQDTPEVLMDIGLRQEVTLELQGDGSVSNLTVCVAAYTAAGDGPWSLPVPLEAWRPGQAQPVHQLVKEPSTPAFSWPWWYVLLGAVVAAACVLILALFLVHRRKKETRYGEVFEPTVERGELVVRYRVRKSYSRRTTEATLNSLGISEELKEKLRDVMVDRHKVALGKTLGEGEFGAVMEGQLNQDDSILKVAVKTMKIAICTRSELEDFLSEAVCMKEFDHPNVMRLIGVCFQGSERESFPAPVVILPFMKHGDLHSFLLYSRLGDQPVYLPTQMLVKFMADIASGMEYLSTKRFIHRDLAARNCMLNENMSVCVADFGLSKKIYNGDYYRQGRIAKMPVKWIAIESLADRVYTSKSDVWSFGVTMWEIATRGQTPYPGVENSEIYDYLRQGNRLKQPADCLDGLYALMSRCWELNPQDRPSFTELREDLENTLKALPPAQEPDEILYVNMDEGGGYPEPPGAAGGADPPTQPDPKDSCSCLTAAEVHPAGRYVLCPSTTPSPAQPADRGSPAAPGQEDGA

panel of 442 kinases [3] = target: T3, panel of 442 kinases (Homo sapiens, UniProt Q7L7X3); conditions: kinase TAOK1; for remaining activity at 1 µM: read-out: TAOK1 (% of control at 1 µM)
T3 construct: purchased Ambit Biosciences (scanMAXX KINOMEscan)
T3 sequence (Q7L7X3 1-1001): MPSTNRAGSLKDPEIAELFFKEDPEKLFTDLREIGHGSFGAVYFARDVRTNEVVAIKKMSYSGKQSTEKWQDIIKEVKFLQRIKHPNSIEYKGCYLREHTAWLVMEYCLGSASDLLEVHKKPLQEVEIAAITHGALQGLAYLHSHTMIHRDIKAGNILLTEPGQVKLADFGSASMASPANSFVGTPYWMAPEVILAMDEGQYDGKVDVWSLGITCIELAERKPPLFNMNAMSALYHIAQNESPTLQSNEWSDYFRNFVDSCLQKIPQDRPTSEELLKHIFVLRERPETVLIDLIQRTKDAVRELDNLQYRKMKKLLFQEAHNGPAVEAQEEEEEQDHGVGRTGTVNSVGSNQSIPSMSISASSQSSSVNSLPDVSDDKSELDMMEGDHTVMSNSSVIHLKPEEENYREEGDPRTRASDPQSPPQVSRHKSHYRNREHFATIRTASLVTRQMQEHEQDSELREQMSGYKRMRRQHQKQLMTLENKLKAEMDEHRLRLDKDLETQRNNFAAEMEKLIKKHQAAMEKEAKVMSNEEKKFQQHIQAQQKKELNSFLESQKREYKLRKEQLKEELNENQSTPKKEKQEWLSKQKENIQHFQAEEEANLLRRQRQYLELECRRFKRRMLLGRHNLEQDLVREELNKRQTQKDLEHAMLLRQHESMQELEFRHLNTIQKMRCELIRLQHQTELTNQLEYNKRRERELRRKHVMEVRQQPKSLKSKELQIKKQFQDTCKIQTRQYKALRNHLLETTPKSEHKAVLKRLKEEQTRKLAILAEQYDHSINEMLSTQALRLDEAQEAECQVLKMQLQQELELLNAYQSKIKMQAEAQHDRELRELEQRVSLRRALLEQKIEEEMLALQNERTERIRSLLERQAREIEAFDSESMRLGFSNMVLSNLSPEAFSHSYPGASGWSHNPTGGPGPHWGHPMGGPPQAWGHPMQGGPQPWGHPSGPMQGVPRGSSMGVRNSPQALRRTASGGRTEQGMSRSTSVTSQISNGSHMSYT

panel of 442 kinases [4] = target: T4, panel of 442 kinases (Homo sapiens, UniProt Q86YV6); conditions: kinase MYLK4; for remaining activity at 1 µM: read-out: % of control at 1 µM
T4 construct: purchased Ambit Biosciences (scanMAXX KINOMEscan)
T4 sequence (Q86YV6 1-388): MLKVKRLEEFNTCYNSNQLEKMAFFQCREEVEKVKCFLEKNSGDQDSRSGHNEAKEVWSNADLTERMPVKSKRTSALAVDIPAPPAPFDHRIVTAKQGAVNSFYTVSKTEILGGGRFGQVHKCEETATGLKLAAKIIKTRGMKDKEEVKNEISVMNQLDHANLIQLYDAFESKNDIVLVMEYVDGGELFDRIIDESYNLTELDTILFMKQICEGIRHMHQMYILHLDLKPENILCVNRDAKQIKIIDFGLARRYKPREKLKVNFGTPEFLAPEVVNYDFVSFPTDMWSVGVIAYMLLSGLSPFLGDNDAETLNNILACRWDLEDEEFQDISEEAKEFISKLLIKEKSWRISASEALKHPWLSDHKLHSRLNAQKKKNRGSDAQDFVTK

panel of 442 kinases [5] = target: T5, panel of 442 kinases (Homo sapiens, UniProt Q9BUB5); conditions: kinase MKNK1; for remaining activity at 1 µM: read-out: % of control at 1 µM
T5 construct: purchased Ambit Biosciences (scanMAXX KINOMEscan)

[6] = 10 µM, read-out: % of control at 10 µM

T5 sequence (Q9BUB5 whole entry): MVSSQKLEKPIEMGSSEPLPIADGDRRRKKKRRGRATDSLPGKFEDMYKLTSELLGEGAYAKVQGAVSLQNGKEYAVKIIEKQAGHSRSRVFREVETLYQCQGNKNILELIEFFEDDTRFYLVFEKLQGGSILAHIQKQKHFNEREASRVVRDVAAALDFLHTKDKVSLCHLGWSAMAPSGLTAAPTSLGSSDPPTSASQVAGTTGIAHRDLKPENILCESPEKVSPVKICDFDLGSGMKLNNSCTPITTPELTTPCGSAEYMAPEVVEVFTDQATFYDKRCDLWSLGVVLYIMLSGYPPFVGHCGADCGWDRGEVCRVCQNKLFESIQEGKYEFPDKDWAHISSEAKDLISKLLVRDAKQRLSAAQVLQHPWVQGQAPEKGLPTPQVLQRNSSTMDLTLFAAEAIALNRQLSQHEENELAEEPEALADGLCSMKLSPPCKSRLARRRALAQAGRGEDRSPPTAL
T1 sequence (P22607 23-806): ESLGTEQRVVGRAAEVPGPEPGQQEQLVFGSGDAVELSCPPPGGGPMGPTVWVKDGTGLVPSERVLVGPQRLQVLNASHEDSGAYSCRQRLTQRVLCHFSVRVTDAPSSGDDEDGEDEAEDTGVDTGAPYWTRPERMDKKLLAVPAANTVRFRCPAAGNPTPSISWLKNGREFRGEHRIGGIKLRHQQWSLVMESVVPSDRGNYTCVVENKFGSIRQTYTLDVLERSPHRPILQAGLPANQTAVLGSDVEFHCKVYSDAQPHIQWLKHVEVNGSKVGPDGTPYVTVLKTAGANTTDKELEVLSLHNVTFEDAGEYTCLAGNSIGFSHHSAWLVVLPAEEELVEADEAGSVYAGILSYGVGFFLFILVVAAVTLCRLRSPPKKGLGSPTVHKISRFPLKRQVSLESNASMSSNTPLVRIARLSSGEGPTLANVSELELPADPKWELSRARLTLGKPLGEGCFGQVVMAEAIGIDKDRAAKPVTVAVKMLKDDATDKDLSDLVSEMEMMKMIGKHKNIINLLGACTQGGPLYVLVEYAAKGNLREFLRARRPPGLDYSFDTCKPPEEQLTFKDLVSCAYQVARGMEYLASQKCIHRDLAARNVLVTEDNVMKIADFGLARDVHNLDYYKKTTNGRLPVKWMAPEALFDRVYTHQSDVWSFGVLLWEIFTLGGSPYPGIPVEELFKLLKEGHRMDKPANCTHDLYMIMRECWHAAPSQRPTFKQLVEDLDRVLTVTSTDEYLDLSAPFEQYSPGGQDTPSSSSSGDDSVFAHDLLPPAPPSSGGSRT

Row | Compound | remaining activity at 1 µM (panel of 442 kinases [1]) | remaining activity at 10 µM (panel of 442 kinases [1]; [6]) | remaining activity at 1 µM (panel of 442 kinases [2]) | remaining activity at 10 µM (panel of 442 kinases [2]; [6]) | remaining activity at 1 µM (panel of 442 kinases [3]) | remaining activity at 10 µM (panel of 442 kinases [3]; 10 µM, read-out: TAOK1 (% of control at 10 µM)) | remaining activity at 1 µM (panel of 442 kinases [4]) | remaining activity at 10 µM (panel of 442 kinases [4]; [6]) | remaining activity at 1 µM (panel of 442 kinases [5]) | remaining activity at 10 µM (panel of 442 kinases [5]; [6])
1 | Nc1cc(C(F)(F)F)c(-c2cc(N3CCOCC3)nc(N3CCOCC3)n2)cn1 [Buparlisib] | 100% | 100% | 89% | 100% | 86% | 82% | 100% | 100% | 100% | 100%
2 | Cn1c(=O)n(-c2ccc(C(C)(C)C#N)cc2)c2c3cc(-c4cnc5ccccc5c4)ccc3ncc21 [Dactolisib, 2-methyl-2-[4-(3-methyl-2-oxo-8-quinolin-3-yl-2,3-dihydroimidazo[4,5-c]quinolin-1-yl)-phenyl] propionitrile] | 100% |  | 48% |  | 70% |  | 95% |  | 100% | 
3 | COc1ncc(-c2ccc3nccc(-c4ccnnc4)c3c2)cc1NS(=O)(=O)c1ccc(F)cc1F [Omipalisib] | 87% |  | 100% |  | 100% |  | 84% |  | 43% | 
4 | FC(F)c1nc2ccccc2n1-c1nc(N2CCOCC2)nc(N2CCOCC2)n1 [ZSTK474, 2-(difluoromethyl)-1-[4,6-di(4-morpholinyl)-1,3,5-triazin-2-yl]-1H-benzimidazole] | 100% |  | 93% |  | 74% |  | 100% |  | 92% | 
